A short description of assay [1]: Binding to [^3 H]-heparin. Conditions: result in words.
The test system of assay [2] is FGF receptors of BHK cells. Conditions: result in words.
For assay [3], the system named is 3T3 cells. Put plainly: [^3 H]-thymidine incorporation in serum-starved 3T3 cells challenged with bFGF. It is filed as cell-based. Conditions: 24 hours with peptide and bFGF challenge, then 5 hours label, result in words. The protocol: The synthesis of bFGF(97-120)-NH2 having the formula: H-Arg-Leu-Glu-Ser-Asn-Asn-Tyr-Asn-Thr-Tyr-Arg-Ser-Arg-Lys-Tyr-Ser-Ser-Trp- Tyr-Val-Ala-Lys-Arg-NH2 is conducted in a stepwise manner using a Beckman 990 synthesizer and an MBHA resin in the manner described in Example I. The peptide is judged to be substantially pure using TLC and HPLC. Testing is carried out using a culture of serum-starved 3T3 cells which are incubated for 24 hours with the bFGF peptide fragment and a challenge dose of bFGF and then incubated for 5 hours with radioactive [^3 H]-thymidine to determine whether the fragment will inhibit the incorporation of [^3 H]-DNA in the cell line which will be indicative of its inhibiting cell growth.
For orientation: Dividing cells build labelled thymidine or BrdU into new DNA.

For assay [4], the system named is BAAE cells. It is filed as cell-based, bovine. How it is done:
To determine the effectiveness of the bFGF fragment peptide to inhibit the growth of endothelial cells, the peptide is tested under conditions to measure its ability to modulate both basal cell growth and bFGF-simulated cell proliferation. A bioassay was employed of the type set forth in detail in Gospodarowicz et al., J. Cell Biol., 122, 323-333 (1985), using BAAE cells.
For each test, an initial cell density of between about 0.3-0.5×10^4 cells per well was established in 24-miniwell plates. After 6-8 hours, the cells in each well were treated with a challenge dose of bFGF in the absence, or presence to a varying concentration, of a synthetic FGF antagonist. The precise treatment was repeated 48 hours later. On the fifth day, the cells were digested with trypsin, and the total number of cells in each well was determined using a Coulter particle counter.

Ends that are not written are not given here.

Consider “H-YNTYRSRKYSSWYVALKRTGQYKLGPKTGPGQKAILFLPMSAKS-NH2 [bFGF(103-146)-NH2, H-Tyr-Asn-Thr-Tyr-Arg-Ser-Arg-Lys-Tyr-Ser-Ser-Trp-Tyr-Val-Ala-Leu-Lys-Arg- Thr-Gly-Gln-Tyr-Lys-Leu-Gly -Pro-Lys-Thr-Gly-Pro-Gly-Gln-Lys-Ala-Ile-Leu-Phe-Leu-Pro-Met-Ser-Ala-Lys-Ser-NH2]”, for which the “inhibition of FGF binding to heparin” value in assay [1] is recorded as “very strongly inhibits”. Besides, the “inhibition of bFGF binding to BHK cells (receptor)” value (“inhibition of bFGF binding” below) in assay [2] is reported as “very strongly inhibits”.

“H-YRSRKYSSWY-NH2 [bFGF(106-115)-NH2, H-Tyr-Arg-Ser-Arg-Lys-Tyr-Ser-Ser-Trp-Tyr-NH2]”: the “binding of the peptide to heparin” value in assay [1] is reported as “binds to heparin”. Moreover, the “inhibition of bFGF-induced mitosis ([^3 H]-thymidine incorporation)” value (from here on “inhibition of bFGF-induced mitosis”) in assay [3] is given as “very good inhibition”. Besides, the “inhibition of bFGF binding” value in assay [2] is listed as “very strongly inhibits”.

Regarding “H-FFFERLESNNYNTYRSRKYSSWYVALKR-NH2 [bFGF(93-120)-NH2, H-Phe-Phe-Phe-Glu-Arg-Leu-Glu-Ser-Asn-Asn-Tyr-Asn-Thr-Tyr-Arg-Ser-Arg-Lys- Tyr-Ser-Ser-Trp-Tyr-Val-Ala Leu-Lys-Arg-NH2]”, the “antagonist activity to both basal and bFGF-stimulated endothelial cell growth” value in assay [4] (result in words) is on record as “full antagonist activity”. Besides, the “binding of the peptide to heparin” value in assay [1] is given as “binds to heparin”. The “inhibition of bFGF binding” value in assay [2] is “inhibits the binding”.

Consider “H-Arg-Leu-Glu-Ser-Asn-Asn-Tyr-Asn-Thr-Tyr-Arg-Ser-Arg-Lys-Tyr-Ser-Ser-Trp- Tyr-Val-Ala-Lys-Arg-NH2 (H-RLESNNYNTYRSRKYSSWYVAKR-NH2) [bFGF(97-120)-NH2]”, for which the “binding of the peptide to heparin” value in assay [1] is reported as “binds itself to heparin”. For the same substance, the “inhibition of bFGF-induced mitosis” value in assay [3] is on record as “very good inhibition”. Moreover, in assay [2], the “inhibition of bFGF binding” value was “very strongly inhibits”.

As for “H-SNNYNTYRSRKYSSWYVALKR-NH2 [bFGF(100-120)-NH2, H-Ser-Asn-Asn-Tyr-Asn-Thr-Tyr-Arg-Ser-Arg-Lys-Tyr-Ser-Ser-Trp-Tyr-Val-Ala- Leu-Lys-Arg-NH2]”, the “binding of the peptide to heparin” value in assay [1] is “binds itself to heparin”. Besides, the “inhibition of bFGF-induced mitosis” value in assay [3] is “very good inhibition”. Further, in assay [2], the “inhibition of bFGF binding” value is reported as “very strongly inhibits”.

On to “H-YRSRKYSSWYVAL-NH2 [bFGF(106-118)-NH2, H-Tyr-Arg-Ser-Arg-Lys-Tyr-Ser-Ser-Trp-Tyr-Val-Ala-Leu-NH2]”, for which the “antagonist activity in mitogenic assays” value in assay [4] (result in words) is reported as “partial antagonist activity”. Also, the “inhibition of bFGF binding” value in assay [2] is given as “inhibits binding”.

Regarding “H-YNTYRSRKYSAWYVALKRTGQYKLGPKTGPGQKAILFLPMSAKS-NH2 [[Ala^113]-bFGF(103-146)-NH2]”, the “inhibition of bFGF binding” value in assay [2] was “very strongly inhibits”.

In the case of “H-YRSRKYSSWFVALKR-NH2 [[Phe^115]-bFGF(106-120)-NH2, H-Tyr-Arg-Ser-Arg-Lys-Tyr-Ser-Ser-Trp-Phe-Val-Ala-Leu-Lys-Arg-NH2]”, in assay [3], the “inhibition of bFGF-induced mitosis” value is recorded as “very good inhibition”. Also, the “inhibition of bFGF binding” value in assay [2] is “very strongly inhibits”.

For “YKNGGFFLRIHPDGRVDGVREKSDPHIKLQLQAEERGVVSIKGV-NH2 [[Tyr^25]-bFGF(25-68)-NH2]”, in assay [4] (bFGF-stimulated growth, manner of Example II, concentration not given), the “reducing cell population, bFGF-stimulated endothelial cell growth” value is recorded as “about 95%”. In addition, in assay [4] (basal growth, manner of Example II, concentration not given), the “reducing cell population, basal endothelial cell growth” value is reported as “about 86%”. Further, the “antagonist activity to both basal and bFGF-stimulated endothelial cell growth” value in assay [4] (result in words) is “full antagonist activity”. Also, in assay [1], the “binding of the peptide to heparin” value is “very strong binding affinity”. In assay [2], the “binding affinity for BHK cells” value is on record as “very strong binding affinity”.

As to “H-YRSRKYSSMYVALKR-NH2 [[Met^114]-bFGF(106-120)-NH2, H-Tyr-Arg-Ser-Arg-Lys-Tyr-Ser-Ser-Met-Tyr-Val-Ala-Leu-Lys-Arg-NH2]”, the “inhibition of bFGF-induced mitosis” value in assay [3] is on record as “very good inhibition”. Also, the “inhibition of bFGF binding” value in assay [2] was “very strongly inhibits”.

In the case of “H-Cys-Lys-Asn-Gly-Gly-Phe-Phe-T-Arg-Ile-His-Pro-Asp-NH2 [bFGF(25-37)-NH2]”, the “antagonist activity to basal endothelial cell growth” value in assay [4] (basal growth only, result in words) was “some antagonist activity”. The “binding of the peptide to heparin” value in assay [1] is on record as “fairly strong binding affinity”. The “binding affinity for BHK cells” value in assay [2] is given as “fair affinity”.

For “H-YRSRKYSSWYVALKR-NH2 [bFGF(106-120)-NH2, H-Tyr-Arg-Ser-Arg-Lys-Tyr-Ser-Ser-Trp-Tyr-Val-Ala-Leu-Lys-Arg-NH2]”, the “binding of the peptide to heparin” value in assay [1] is given as “binds to heparin”. Further, in assay [3], the “inhibition of bFGF-induced mitosis” value is “very good inhibition”. Also, the “inhibition of bFGF binding” value in assay [2] is on record as “very strongly inhibits”.

For the substance “H-YCKNGGFFLRIHPDGRVDGVREKSDPHIKLQLQAEERGVVSIKGV-NH2 [bFGF(24-68)-NH2]”, the ID50 result in assay [4] is “about 5 micromolar”. In addition, in assay [4] (bFGF-stimulated cell growth, peptide about 100 μg/ml), the “cell population reduced, bFGF-stimulated cell growth” value is given as “about 92%”. Moreover, the “cell population reduced, basal cell growth” value in assay [4] (basal cell growth, peptide about 100 μg/ml) was “about 84%”. For the same substance, the “antagonist activity to both basal and bFGF-stimulated endothelial cell growth” value in assay [4] (result in words) is on record as “full antagonist activity”. Further, the “binding of the peptide to heparin” value in assay [1] is on record as “strong affinity”.

Regarding “H-HPDGRVDAVREKTDPH-NH2 [[Ala^42, Thr^47]-bFGF(35-50)-NH2, H-His-Pro-Asp-Gly-Arg-Val-Asp-Ala-Val-Arg-Glu-Lys-Thr-Asp-Pro-His-NH2]”, in assay [4] (result in words), the “antagonist activity to both basal and bFGF-stimulated endothelial cell growth” value is “full antagonist activity”.

On to “YNTYRSRKYSSWYVALKR-NH2 [bFGF(103-120)-NH2, H-Tyr-Asn-Thr-Tyr-Arg-Ser-Arg-Lys-Tyr-Ser-Ser-Trp-Tyr-Val-Ala-Leu-Lys-Arg- NH2]”, for which the “binding of the peptide to heparin” value in assay [1] is given as “binds to heparin”. For the same substance, the “inhibition of bFGF-induced mitosis” value in assay [3] is recorded as “very good inhibition”. Besides, the “inhibition of bFGF binding” value in assay [2] is given as “very strongly inhibits”.

As for “YCKNGGFFLRIHPDGRVDGVREKADPHIKLQLQAEERGVV-NH2 [[Ala^47]-bFGF(24-63)-NH2]”, the “antagonist activity to both basal and bFGF-stimulated endothelial cell growth” value in assay [4] (result in words) is reported as “full antagonist activity”.

On to “H-PDGRVDAVREKSDPHIKLQLQAEERGVVSIKGV-NH2 [[Ala^42]-bFGF(36-68)-NH2, H-Pro-Asp-Gly-Arg-Val-Asp-Ala-Val-Arg-Glu-Lys-Ser-Asp-Pro-His-Ile-Lys-Leu- Gln-Leu-Gln-Ala-Glu Glu-Arg-Gly-Val-Val-Ser-Ile-Lys-Gly-Val-NH2]”, for which the “antagonist activity to both basal and bFGF-stimulated endothelial cell growth” value in assay [4] (result in words) was “full antagonist activity”.
